Here are results for three molecules from ChEMBL document CHEMBL1817605, “Development of a highly selective fluorescence probe for alkaline phosphatase” (Bioorg Med Chem Lett, 2011).

Test [1] addresses Serine/threonine-protein phosphatase PP1-alpha catalytic subunit (Homo sapiens) (UniProt P62136). Description: Activity of PP1 alpha.
Test [2] is described as follows: Activity of alkaline phosphatase by Michaelis-Menten equation analysis.
Test [3] has as its target T1, Tyrosine-protein phosphatase non-receptor type 1 (Homo sapiens) (UniProt P18031).
T1 sequence (whole entry): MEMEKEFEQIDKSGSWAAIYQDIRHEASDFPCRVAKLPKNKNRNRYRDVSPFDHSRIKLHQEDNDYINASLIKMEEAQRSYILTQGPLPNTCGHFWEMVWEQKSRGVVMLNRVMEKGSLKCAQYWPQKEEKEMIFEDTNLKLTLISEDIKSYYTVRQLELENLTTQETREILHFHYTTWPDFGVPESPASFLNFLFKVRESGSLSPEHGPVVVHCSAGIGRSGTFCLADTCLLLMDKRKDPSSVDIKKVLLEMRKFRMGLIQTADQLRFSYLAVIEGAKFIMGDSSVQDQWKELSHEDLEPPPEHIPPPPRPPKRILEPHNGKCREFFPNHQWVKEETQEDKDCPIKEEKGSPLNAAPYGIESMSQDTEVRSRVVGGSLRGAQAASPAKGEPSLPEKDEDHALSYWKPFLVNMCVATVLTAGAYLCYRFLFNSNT
As to the kind of experiment: Activity of PTP1B.

Test [4] can be described thus: Activity of alkaline phosphatase at 2 uM measured every 2 mins from up to 30 mins by fluorometric analysis.
Test [5] is described as follows: Ratio of Vmax to Km for alkaline phosphatase.

Molecules are shown by their SMILES. Activity calls are given as the source filed them. No cut-off for these calls is given here.

Serine/threonine-protein phosphatase PP1-alpha catalytic subunit (Homo sapiens), sequence (P62136 whole entry): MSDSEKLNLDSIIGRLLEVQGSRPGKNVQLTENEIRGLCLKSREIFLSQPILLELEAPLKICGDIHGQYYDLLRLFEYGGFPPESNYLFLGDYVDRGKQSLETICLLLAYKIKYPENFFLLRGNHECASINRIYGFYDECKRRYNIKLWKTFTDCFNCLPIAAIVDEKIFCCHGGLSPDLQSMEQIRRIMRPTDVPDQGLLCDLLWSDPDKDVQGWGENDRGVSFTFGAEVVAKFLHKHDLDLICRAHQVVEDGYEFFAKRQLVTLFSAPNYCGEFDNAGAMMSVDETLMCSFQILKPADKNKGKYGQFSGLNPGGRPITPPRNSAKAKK

Consider `COc1ccc(-c2c3ccc(=O)cc-3oc3cc(OP(=O)(O)O)ccc23)c(C)c1`, for which the result in test [1], in test [3] and in test [4] was Active. For the same molecule, the Michaelis-Menten constant (Km) in test [2] turned out to be 0.96 µM. For the same molecule, the Vmax in test [2] is 0.025 µM/min. In addition, the Vmax/Km in test [5] turned out to be 0.026 min⁻¹.
As to `COc1ccc(-c2c3ccc(=O)cc-3oc3cc(OCOP(=O)(O)O)ccc23)c(C)c1`, in test [1], the outcome was inactive. In test [2], the Michaelis-Menten constant (Km) was 0.77 µM and the maximum rate (Vmax) was 0.033 µM/min. In addition, the result in test [3] was inactive. Besides, in test [4], the outcome was Active. Further, the Vmax/Km in test [5] came out at 0.043 min⁻¹.
Turning to `O=C1OC2(c3ccc(OP(=O)(O)O)cc3Oc3cc(OP(=O)(O)O)ccc32)c2ccccc21`, the result in test [3] and in test [4] was Active.

For orientation: Km means the concentration of substrate that gives half-maximal velocity. The Vmax is the rate approached at saturating substrate.
